Each structure is given as a SMILES string. Values after ≈ are worked out from the molar mass of the structure shown. Like-named read-outs stand apart in the source and are kept apart here. Bounds are passed on as bounds.

The values below come from patent US4952704A, “Bis-(pyrrolidonyl alkylene) biguanides” (GAF Chemicals Corporation, priority 1989, dated 1990).

The test system of data set [1] is E. Coli. Briefly: Minimum inhibitory concentration, E. Coli (Gram negative). Type of data set: cell-based. The settings on record: Escherichia coli. The protocol:
(§1) The minimum inhibitory concentrations (MIC) against different Gram positive and Gram negative microorganisms, and fungi, were determined and the results are shown in Table 2 below.

Data set [2] concerns Ps. aer. As to the kind of experiment: Minimum inhibitory concentration, Ps. aer. (Gram negative). The data set is classed as cell-based. The protocol:
as §1

Data set [3] relates to Strept. py. As to the kind of experiment: Minimum inhibitory concentration, Strept. py. (Gram positive). Type of data set: cell-based. On the procedure:
as §1

Data set [4] has as its system Staph. aur. Briefly: Minimum inhibitory concentration, Staph. aur. (Gram positive). Type of data set: cell-based. The protocol:
as §1

Data set [5] relates to Fungi. Briefly: Minimum inhibitory concentration, Fungi. Type of data set: cell-based. The protocol:
as §1

Data set [6] can be described thus: Solubility in Water (Table 1). The data set is classed as physicochemical. An excerpt: The results in Table I below illustrates the water solubility of the free base and hydrochloride salts of the invention versus chlorhexidine.
For data set [7] the following is noted: cited from earlier work.
For data set [8], the system named is bacterial spores. The settings on record: room temperature; cited from earlier work.
For data set [9], the system named is bacteria. As to conditions: cited from earlier work.
The conditions of data set [10]: cited from earlier work. This is another data set of the same source.
The mark [11] stands for this setting: HCl salt, pH 5.5, read-out: Solubility in water, HCl Salt (pH 5.5).
Where [12] appears, read: free base, pH 8.5, read-out: Solubility in water, Free Base (pH 8.5).

`N=C(NCCCCCCNC(=N)NC(=N)Nc1ccc(Cl)cc1)NC(=N)Nc1ccc(Cl)cc1` [Chlorhexidine gluconate, reference compound]: the MIC in data set [1] is 5 µg/mL; in [2], 50 µg/mL; in [3], 5 µg/mL; in data set [4], 2.5 µg/mL; in data set [5] it was above 200 µg/mL.
With `[H]/N=C(\N/C(=N/[H])NCCCCCCNC(=N)NC(=N)Nc1ccc(Cl)cc1)Nc1ccc(Cl)cc1` [Chlorhexidine, 1,6-bis(4-chlorophenylbiguanido)-hexane], the solubility was found to be 18 mg/mL in [6] (setting [11]) and 0.08 mg/mL (≈ 158 µM) in data set [6] (setting [12]). Also, in data set [7], the “water solubility for the free base” value was “low water solubility”. Besides, in data set [8], the “activity against bacterial spores” value is reported as “inactivity against bacterial spores”. In addition, the “antibacterial activity at low pH” value in data set [9] (pH below 5) was “deteriorates”. Also, in data set [9] (pH range 5-8), the “antibacterial activity, pH dependence” value was “pH dependent”. Further, the “compatibility in formulations containing surface active agents” value in [10] was “incompatability”.
For the compound `N=C(NCCCCCCNC(=N)NC(=N)NCCN1CCCC1=O)NC(=N)NCCN1CCCC1=O` [Ex. 4, 1,6-Bis[1-(2-Pyrrolidonylethyl)biguanido]hexane:2HCl], the solubility in data set [6] (setting [11]) was found to be 500 mg/mL; in data set [6] (setting [12]) it was 50 mg/mL. Also, the MIC in [1] was 250 µg/mL; in data set [2] it was 250 µg/mL; in data set [3], at most 50 µg/mL; in [4], at most 100 µg/mL; in data set [5], 100 µg/mL.
For the compound `N=C(NCCCCCCCCCCCCNC(=N)NC(=N)NCCN1CCCC1=O)NC(=N)NCCN1CCCC1=O` [Ex. 5, 1,12-Bis[1-(2-Pyrrolidonylethyl)biguanido]dodecane:2HCl], the values for the solubility in data set [6] (setting [11]) and in [6] (setting [12]) were 500 mg/mL and 20 mg/mL, respectively. The MIC in data set [1] is 250 µg/mL; in data set [2], above 500 µg/mL; in data set [3] it was at most 50 µg/mL; in data set [4], at most 50 µg/mL; in [5], at most 50 µg/mL.
`N=C(NCCOCCOCCNC(=N)NC(=N)NCCN1CCCC1=O)NC(=N)NCCN1CCCC1=O` [Ex. 6, 1,2-Bis[1-(2-pyrrolidonylethyl)-5-(2-Ethoxybiguanido)]ethane:2HCl]: the solubility in data set [6] (setting [11]) and in [6] (setting [12]) was 500 mg/mL in each case. The MIC in [1] was 100 µg/mL; in data set [2], at most 100 µg/mL; in [3], at most 50 µg/mL; in data set [4], above 500 µg/mL; in [5], at most 50 µg/mL.
